HELM strings list units from the 5' end as sugar, base in round brackets, then linkage (d deoxyribose, r ribose, m 2'-O-methyl, p phosphodiester). Strings are as the collection lists them, not checked against the first reports. ss, as = sense and antisense strand; [lna] = locked nucleic acid (LNA); [hna] = hexitol nucleic acid; [fl2r] = 2'-fluoro
Conditions: siRNA
Further: test system not given here.

Substance	target mRNA knockdown
RNA1{[fl2r](U)p.r(U)p.[fl2r](A)p.r(C)p.[fl2r](C)p.r(C)p.[fl2r](C)p.r(G)p.[fl2r](A)p.r(U)p.[fl2r](U)p.r(C)p.[fl2r](A)p.r(G)p.[fl2r](C)p.r(C)p.[fl2r](U)p.r(C)p.[fl2r](U)p.r(T)p.r(T)}|RNA2{r(A)p.r(G)p.r(A)p.r(G)p.r(G)p.r(C)p.r(U)p.r(G)p.r(A)p.r(A)p.r(U)p.r(C)p.r(G)p.r(G)p.r(G)p.r(G)p.r(U)p.r(A)p.r(A)p.r(T)p.r(T)}$$$RNA1{StrandType:ss}|RNA2{StrandType:as}$	67%
RNA1{[fl2r](U)p.r(U)p.[fl2r](C)p.r(U)p.[fl2r](A)p.r(A)p.[fl2r](C)p.r(C)p.[fl2r](G)p.r(G)p.[fl2r](G)p.r(C)p.[fl2r](A)p.r(G)p.[fl2r](C)p.r(U)p.[fl2r](U)p.r(C)p.[fl2r](U)p.r(T)p.r(T)}|RNA2{r(A)p.r(G)p.r(A)p.r(A)p.r(G)p.r(C)p.r(U)p.r(G)p.r(C)p.r(C)p.r(C)p.r(G)p.r(G)p.r(U)p.r(U)p.r(A)p.r(G)p.r(A)p.r(A)p.r(T)p.r(T)}$$$RNA1{StrandType:ss}|RNA2{StrandType:as}$	61%
RNA1{[hna](G)p.[hna](A)p.[hna](C)p.r(G)p.r(U)p.r(A)p.r(A)p.r(A)p.r(C)p.r(G)p.r(G)p.r(C)p.r(C)p.r(A)p.r(C)p.r(A)p.r(A)p.[hna](G)p.[hna](U)p.[hna](U)p.d(T)}|RNA2{[fl2r](A)p.m(C)p.[fl2r](U)p.m(U)p.[fl2r](G)p.m(U)p.[fl2r](G)p.m(G)p.[fl2r](C)p.m(C)p.[fl2r](G)p.m(U)p.[fl2r](U)p.m(U)p.[fl2r](A)p.m(C)p.[fl2r](G)p.m(U)p.[fl2r](C)p.m(G)p.[fl2r](C)}$$$RNA1{StrandType:ss}|RNA2{StrandType:as}$	81.8%
RNA1{[hna](G)p.[hna](A)p.[hna](C)p.r(G)p.r(U)p.r(A)p.r(A)p.r(A)p.r(C)p.r(G)p.r(G)p.r(C)p.r(C)p.r(A)p.r(C)p.r(A)p.r(A)p.[hna](G)p.[hna](U)p.[hna](U)p.d(T)}|RNA2{r(A)p.[hna](C)p.r(U)p.r(U)p.r(G)p.r(U)p.r(G)p.r(G)p.[hna](C)p.r(C)p.r(G)p.r(U)p.r(U)p.r(U)p.r(A)p.r(C)p.r(G)p.[hna](U)p.[hna](C)p.[hna](G)p.d(T)}$$$RNA1{StrandType:ss}|RNA2{StrandType:as}$	35.8%
RNA1{[hna](G)p.[hna](A)p.[hna](C)p.r(G)p.r(U)p.r(A)p.r(A)p.r(A)p.r(C)p.r(G)p.r(G)p.r(C)p.r(C)p.r(A)p.r(C)p.r(A)p.r(A)p.[hna](G)p.[hna](U)p.[hna](U)p.d(T)}|RNA2{r(A)p.[hna](C)p.r(U)p.r(U)p.r(G)p.r(U)p.r(G)p.r(G)p.r(C)p.r(C)p.r(G)p.r(U)p.r(U)p.r(U)p.r(A)p.r(C)p.r(G)p.[hna](U)p.[hna](C)p.[hna](G)p.d(T)}$$$RNA1{StrandType:ss}|RNA2{StrandType:as}$	77.4%
RNA1{[hna](G)p.[hna](A)p.[hna](C)p.r(G)p.r(U)p.r(A)p.r(A)p.r(A)p.r(C)p.r(G)p.r(G)p.r(C)p.r(C)p.r(A)p.r(C)p.r(A)p.r(A)p.[hna](G)p.[hna](U)p.[hna](U)p.d(T)}|RNA2{r(A)p.m(C)p.r(U)p.r(U)p.r(G)p.r(U)p.r(G)p.r(G)p.r(C)p.r(C)p.r(G)p.r(U)p.r(U)p.r(U)p.r(A)p.r(C)p.r(G)p.r(U)p.r(C)p.r(G)p.r(C)}$$$RNA1{StrandType:ss}|RNA2{StrandType:as}$	84%
RNA1{[hna](G)p.[hna](A)p.[hna](C)p.r(G)p.r(U)p.r(A)p.r(A)p.r(A)p.r(C)p.r(G)p.r(G)p.r(C)p.r(C)p.r(A)p.r(C)p.r(A)p.r(A)p.[hna](G)p.[hna](U)p.[hna](U)p.d(T)}|RNA2{r(A)p.r(C)p.[hna](U)p.r(U)p.r(G)p.r(U)p.r(G)p.r(G)p.r(C)p.r(C)p.r(G)p.r(U)p.r(U)p.r(U)p.r(A)p.r(C)p.r(G)p.[hna](U)p.[hna](C)p.[hna](G)p.d(T)}$$$RNA1{StrandType:ss}|RNA2{StrandType:as}$	80.6%
RNA1{[hna](G)p.[hna](A)p.[hna](C)p.r(G)p.r(U)p.r(A)p.r(A)p.r(A)p.r(C)p.r(G)p.r(G)p.r(C)p.r(C)p.r(A)p.r(C)p.r(A)p.r(A)p.[hna](G)p.[hna](U)p.[hna](U)p.d(T)}|RNA2{r(A)p.r(C)p.r(U)p.r(U)p.r(G)p.r(U)p.r(G)p.r(G)p.r(C)p.r(C)p.r(G)p.r(U)p.r(U)p.r(U)p.r(A)p.r(C)p.r(G)p.[hna](U)p.[hna](C)p.[hna](G)p.d(T)}$$$RNA1{StrandType:ss}|RNA2{StrandType:as}$	84.6%
RNA1{[hna](G)p.[hna](A)p.[hna](C)p.r(G)p.r(U)p.r(A)p.r(A)p.r(A)p.r(C)p.r(G)p.r(G)p.r(C)p.r(C)p.r(A)p.r(C)p.r(A)p.r(A)p.[hna](G)p.[hna](U)p.[hna](U)p.d(T)}|RNA2{r(A)p.r(C)p.r(U)p.r(U)p.r(G)p.r(U)p.r(G)p.r(G)p.r(C)p.r(C)p.r(G)p.r(U)p.r(U)p.r(U)p.r(A)p.r(C)p.r(G)p.r(U)p.r(C)p.r(G)p.r(C)}$$$RNA1{StrandType:ss}|RNA2{StrandType:as}$	89%
RNA1{[hna](G)p.[hna](A)p.[hna](C)p.r(G)p.r(U)p.r(A)p.r(A)p.r(A)p.r(C)p.r(G)p.r(G)p.r(C)p.r(C)p.r(A)p.r(C)p.r(A)p.r(A)p.[hna](G)p.[hna](U)p.r(U)p.d(T)}|RNA2{r(A)p.r(C)p.[lna](T)p.r(U)p.r(G)p.[lna](T)p.r(G)p.r(G)p.r(C)p.r(C)p.r(G)p.r(U)p.r(U)p.[lna](T)p.r(A)p.r(C)p.r(G)p.[lna](T)p.r(C)p.[lna](G)p.[lna](C)}$$$RNA1{StrandType:ss}|RNA2{StrandType:as}$	5.4%
RNA1{[hna](G)p.[hna](A)p.[hna](C)p.r(G)p.r(U)p.r(A)p.r(A)p.r(A)p.r(C)p.r(G)p.r(G)p.r(C)p.r(C)p.r(A)p.r(C)p.r(A)p.r(A)p.[hna](G)p.[hna](U)p.r(U)p.d(T)}|RNA2{r(A)p.r(C)p.r(U)p.r(U)p.r(G)p.r(U)p.r(G)p.r(G)p.r(C)p.r(C)p.r(G)p.r(U)p.r(U)p.r(U)p.r(A)p.r(C)p.r(G)p.r(U)p.[lna](C)p.[lna](G)p.r(C)}$$$RNA1{StrandType:ss}|RNA2{StrandType:as}$	84.7%
RNA1{[lna](A)p.r(A)p.r(A)p.r(C)p.r(A)p.r(U)p.r(G)p.r(C)p.r(A)p.r(G)p.r(A)p.r(A)p.r(A)p.r(A)p.r(U)p.r(G)p.r(C)p.r(U)p.r(G)p.[lna](T)p.[lna](T)}|RNA2{r(C)p.r(A)p.r(G)p.r(C)p.r(A)p.r(U)p.r(U)p.r(U)p.r(U)p.r(C)p.r(U)p.r(G)p.r(C)p.r(A)p.r(U)p.r(G)p.r(U)p.r(U)p.r(U)p.r(T)p.r(T)}$$$RNA1{StrandType:ss}|RNA2{StrandType:as}$	82%
RNA1{[lna](A)p.r(C)p.r(U)p.r(G)p.r(U)p.r(C)p.r(A)p.r(A)p.r(A)p.r(C)p.r(C)p.r(C)p.r(G)p.r(G)p.r(U)p.r(A)p.r(A)p.r(U)p.r(U)p.[lna](T)p.[lna](T)}|RNA2{r(A)p.r(A)p.r(U)p.r(U)p.r(A)p.r(C)p.r(C)p.r(G)p.r(G)p.r(G)p.r(U)p.r(U)p.r(U)p.r(G)p.r(A)p.r(C)p.r(A)p.r(G)p.r(U)p.[lna](T)p.[lna](T)}$$$RNA1{StrandType:ss}|RNA2{StrandType:as}$	52%
